One data set deals with Cholinesterase (Homo sapiens, UniProt P06276).
Data set [1] has as its target Acetylcholinesterase (Homo sapiens, UniProt P22303).
Description: Inhibition of human AChE using acetylthiocholine iodide as substrate incubated for 10 mins prior to substrate addition measured after 15 mins by Ellman's method
The nature of a further data set: cells. The conditions noted are these: Rattus norvegicus, Wistar, Cerebral cortex neuron, 24 h.
Data set [2] can be described thus: in vitro. The conditions noted are these: human, HepG2 cells.
Description: Cytotoxicity against human HepG2 cells assessed as cell viability at 1 uM after 24 hrs by MTT assay relative to control
A short description of data set [3]: in vitro. The conditions noted are these: human, HepG2 cells. This is another data set of the same source.
Description: Cytotoxicity against human HepG2 cells assessed as cell viability at 300 uM after 24 hrs by MTT assay relative to control
Data set [4] is described as follows: Neurotoxicity in Wistar rat primary cortical neurons assessed as decrease in cell viability at 100 uM by XTT assay. Format: toxicity, cell-based. The following applies: cerebral cortex neuron. For orientation: Formazan colour is commonly taken as a measure of viable cells.
The subject of another data set is HepG2. Put plainly: Cytotoxicity against human HepG2 cells assessed as cell viability after 24 hrs by MTT assay relative to control. Format: cell-based. The conditions noted are these: hepg2, 24 h.
Data set [5] in a line: Neurotoxicity in Wistar rat primary cortical neurons assessed as decrease in cell viability at 50 uM by XTT assay. Format: toxicity, cell-based. The following applies: cerebral cortex neuron.
A short description of data set [6]: in vitro. The following applies: human, HepG2 cells. This is another data set of the same source.
Description: Cytotoxicity against human HepG2 cells assessed as cell viability at 100 uM after 24 hrs by MTT assay relative to control
The nature of data set [7]: in vitro. The conditions noted are these: human, HepG2 cells. The source holds these as a separate data set.
Description: Cytotoxicity against human HepG2 cells assessed as cell viability at 10 uM after 24 hrs by MTT assay relative to control
A short description of data set [8]: in vitro. The conditions noted are these: human, HepG2 cells. This is another data set of the same source.
Description: Cytotoxicity against human HepG2 cells assessed as cell viability at 3 uM after 24 hrs by MTT assay relative to control
Data set [9] is described as follows: Permeability of the compound by PAMPA. It counts as ADME. The conditions noted are these: read-out: permeability. Background: PAMPA measures passive passage across an artificial lipid membrane.
The nature of data set [10]: in vitro. The following applies: human, HepG2 cells. This is another data set of the same source.
Description: Cytotoxicity against human HepG2 cells assessed as cell viability at 30 uM after 24 hrs by MTT assay relative to control
Data set [11] has as its target T1, Acetylcholinesterase (Electrophorus electricus, UniProt O42275). Put plainly: Mixed-type inhibition of electric eel AChE using acetylthiocholine iodide as substrate by Ellman's method. (In general: In Ellman's method for cholinesterases, released thiocholine reacts with DTNB.)
Data set [12] in a line: Antioxidant activity assessed as AAPH-induced radical scavenging activity incubated for 15 mins prior to AAPH induction measured every 1 min for 80 mins by ORAC-FL assay relative to trolox. It counts as functional.
Data set [13] is described as follows: Inhibition of voltage-dependent Ca2+ channel. The conditions noted are these: concentration not given here.
Data set [14] addresses T1, Acetylcholinesterase. Put plainly: Inhibition of electric eel AChE.

The term IC50 denotes the concentration needed to halve the response being measured. What is called EC50 is the midpoint of the concentration-response curve. Read a high EC50 as a need for much substance. By viability is commonly meant the share of living cells, or the viability signal relative to a control. A low value points to a greater loss of cells. By Ki is commonly meant a measure of affinity in units of concentration, obtained from inhibition or displacement. Lower therefore signals tighter binding. As a reminder, the inhibition is the drop in the measured response relative to a control, in per cent. High values mean a response far below the control, low ones a response near the control.

Sequence of Cholinesterase (P06276 whole entry): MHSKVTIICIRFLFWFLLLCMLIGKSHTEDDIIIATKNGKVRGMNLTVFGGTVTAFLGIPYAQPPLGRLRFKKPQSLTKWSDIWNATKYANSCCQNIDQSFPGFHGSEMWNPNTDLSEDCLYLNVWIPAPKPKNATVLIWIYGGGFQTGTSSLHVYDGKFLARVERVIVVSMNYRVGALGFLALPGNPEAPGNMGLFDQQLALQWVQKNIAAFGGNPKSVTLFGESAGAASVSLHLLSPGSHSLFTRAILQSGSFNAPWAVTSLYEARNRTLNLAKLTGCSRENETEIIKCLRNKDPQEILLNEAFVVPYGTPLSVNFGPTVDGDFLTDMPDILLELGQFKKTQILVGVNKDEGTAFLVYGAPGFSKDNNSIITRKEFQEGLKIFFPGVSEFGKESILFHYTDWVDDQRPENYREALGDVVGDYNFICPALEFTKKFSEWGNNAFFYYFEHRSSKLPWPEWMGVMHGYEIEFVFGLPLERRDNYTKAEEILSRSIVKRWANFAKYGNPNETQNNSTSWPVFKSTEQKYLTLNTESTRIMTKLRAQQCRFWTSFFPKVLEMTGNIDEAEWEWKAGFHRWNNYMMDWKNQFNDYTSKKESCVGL
Sequence of Acetylcholinesterase (Homo sapiens, UniProt P22303) (P22303 whole entry): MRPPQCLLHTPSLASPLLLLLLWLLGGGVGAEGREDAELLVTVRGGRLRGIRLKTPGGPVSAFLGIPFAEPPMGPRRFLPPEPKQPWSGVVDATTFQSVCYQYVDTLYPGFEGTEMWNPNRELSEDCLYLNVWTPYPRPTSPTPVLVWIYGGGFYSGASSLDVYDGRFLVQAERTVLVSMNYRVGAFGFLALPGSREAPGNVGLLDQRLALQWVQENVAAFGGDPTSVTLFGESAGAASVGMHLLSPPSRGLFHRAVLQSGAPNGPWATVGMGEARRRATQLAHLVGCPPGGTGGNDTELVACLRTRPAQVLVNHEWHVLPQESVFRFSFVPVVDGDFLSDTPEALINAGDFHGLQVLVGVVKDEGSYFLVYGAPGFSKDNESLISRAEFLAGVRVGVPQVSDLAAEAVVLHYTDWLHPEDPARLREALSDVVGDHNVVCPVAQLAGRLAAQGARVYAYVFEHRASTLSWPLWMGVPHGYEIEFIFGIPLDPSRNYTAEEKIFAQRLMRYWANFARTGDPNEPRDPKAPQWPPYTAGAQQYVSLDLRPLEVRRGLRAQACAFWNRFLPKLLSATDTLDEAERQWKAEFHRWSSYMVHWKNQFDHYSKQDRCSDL
T1 sequence (O42275 whole entry): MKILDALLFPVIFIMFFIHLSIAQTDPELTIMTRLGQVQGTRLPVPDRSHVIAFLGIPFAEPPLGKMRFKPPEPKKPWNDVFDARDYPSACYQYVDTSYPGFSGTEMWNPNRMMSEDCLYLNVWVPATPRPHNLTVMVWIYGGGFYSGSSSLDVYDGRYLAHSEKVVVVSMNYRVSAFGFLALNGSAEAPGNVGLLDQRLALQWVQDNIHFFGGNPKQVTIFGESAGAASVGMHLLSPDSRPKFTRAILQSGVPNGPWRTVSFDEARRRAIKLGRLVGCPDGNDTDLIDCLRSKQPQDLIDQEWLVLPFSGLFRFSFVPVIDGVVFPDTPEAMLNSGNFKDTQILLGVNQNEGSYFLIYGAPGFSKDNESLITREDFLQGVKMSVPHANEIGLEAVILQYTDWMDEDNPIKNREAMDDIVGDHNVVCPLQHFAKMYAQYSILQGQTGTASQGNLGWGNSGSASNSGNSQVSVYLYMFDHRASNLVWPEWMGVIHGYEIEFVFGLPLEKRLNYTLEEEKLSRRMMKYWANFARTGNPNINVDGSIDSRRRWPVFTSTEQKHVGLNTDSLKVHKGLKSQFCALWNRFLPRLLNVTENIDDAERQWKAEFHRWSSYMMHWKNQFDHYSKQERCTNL
Description for cells: Neuroprotective activity in 20 uM rotenone and 10 uM oligomycin-treated Wistar rat primary cortical neurons assessed as increase in cell viability after 24 hrs by XTT assay

As to `Nc1c2c(nc3c1C(c1c(Cl)cccc1Cl)c1ccc4ccccc4c1O3)CCCC2` (racemic), the IC50 was more than 10 µM on Cholinesterase and 4.01 µM at Acetylcholinesterase [1].

As to `COc1ccc(C2c3ccc4ccccc4c3Oc3nc4c(c(N)c32)CCCC4)c(OC)c1` (racemic), a half-maximal response in “cells” (EC50) required 11.1 µM. This molecule also showed a viability at 24 h, 1 µM in “in vitro [2]” of 97.8%. The figures for the concentration for half-maximal inhibition (IC50) against Cholinesterase and on Acetylcholinesterase [1] were more than 10 µM and 0.37 µM, respectively. Besides, the viability at 24 h, 300 µM in “in vitro [3]” is 74.8%. Moreover, the figures for the Activity (in data set [4]; in the data set with HepG2; in data set [5]) were 40%, “Dose-dependent effect” and “Non-toxic”, respectively. The viability at 24 h, 100 µM in “in vitro [6]” is 78.9%. In addition, the viability at 24 h, 10 µM in the data set “in vitro [7]” came out at 85.3%. The molecule further came in with a viability at 24 h, 3 µM in the data set “in vitro [8]” of 84.2%. In data set [9], the Papp was 14.6 ×10⁻⁶ cm/s. In the data set “in vitro [10]”, the viability at 24 h, 30 µM is 76.9%.

Molecule `Nc1c2c(nc3c1C(c1ccc([N+](=O)[O-])cc1)c1ccc4ccccc4c1O3)CCCC2` (racemic) came in with an EC50 in the data set “cells” of 2.36 µM. This molecule also displayed a viability at 24 h, 1 µM in the data set “in vitro [2]” of 95%. Besides, the half-maximal inhibitory concentration (IC50) at Cholinesterase is more than 10 µM; against Acetylcholinesterase [1] it was 5.74 µM. The viability at 24 h, 300 µM in the data set “in vitro [3]” stood at 72.1%. The Activity is listed as 40% in [4], “Dose-dependent effect” in the data set on HepG2 and “Non-toxic” in data set [5]. Also, the viability at 24 h, 100 µM in the data set “in vitro [6]” turned out to be 85%. In “in vitro [7]”, this molecule gave a viability at 24 h, 10 µM of 92.6%. In “in vitro [8]”, the viability at 24 h, 3 µM is 93%. In data set [9], the Papp came out at 16.1 ×10⁻⁶ cm/s. The molecule also displayed a viability at 24 h, 30 µM in “in vitro [10]” of 90.3%.

`COc1cc(C2c3ccc4ccccc4c3Oc3nc4c(c(N)c32)CCCC4)ccc1O` (racemic) showed a Ki at Acetylcholinesterase [11] of 0.081 µM. Besides, in data set [12], the fold change (FC) worked out at 1.5. Further, the half-maximal inhibitory concentration (IC50) against Cholinesterase was more than 10 µM; at Acetylcholinesterase [1], 0.33 µM.

In data set [13], `CCOC(=O)C1=C(C)Oc2nc3c(c(N)c2C1c1ccc(OC)cc1)CCCC3` (stereo not drawn) yielded an inhibition of 50%.

As for `Cc1ccc(C2c3ccc4ccccc4c3Oc3nc4c(c(N)c32)CCCC4)cc1` (racemic), the figures for the IC50 on Cholinesterase and at Acetylcholinesterase [1] were more than 10 µM and 0.4 µM, respectively.

In the case of `Nc1c2c(nc3c1C(c1ccc(Cl)c(Cl)c1)c1ccc4ccccc4c1O3)CCCC2` (racemic), the midpoint of the response in the data set “cells”, the EC50, lay at 3.28 µM. Besides, the viability at 24 h, 1 µM in “in vitro [2]” is 97.5%. The IC50 against Cholinesterase was more than 10 µM; on Acetylcholinesterase [1], 5.07 µM. Moreover, the viability at 24 h, 300 µM in “in vitro [3]” is 61%. Moreover, the Activity is recorded as 40% in [4], “Dose-dependent effect” with HepG2 and “Non-toxic” in data set [5]. The molecule also returned a viability at 24 h, 100 µM in “in vitro [6]” of 63.4%. The same molecule had a viability at 24 h, 10 µM in “in vitro [7]” of 79.9%. In the data set “in vitro [8]”, this molecule had a viability at 24 h, 3 µM of 86.2%. The Papp in data set [9] was found to be 12.3 ×10⁻⁶ cm/s. In the data set “in vitro [10]”, this molecule displayed a viability at 24 h, 30 µM of 68.1%.

Molecule `CCOC(=O)c1c(C)nc2nc3c(c(N)c2c1-c1ccc(F)cc1)CCCC3` registered a half-maximal inhibitory concentration (IC50) against Acetylcholinesterase [14] of 0.71 µM. In data set [13], this molecule came in with an inhibition of 38%.

Regarding `Nc1c2c(nc3c1C(c1ccc(O)cc1)c1ccc4ccccc4c1O3)CCCC2` (racemic), the half-inhibitory concentration (IC50) is more than 10 µM against Cholinesterase and 7.83 µM against Acetylcholinesterase [1].

For the molecule `COc1cc(C2c3ccc4ccccc4c3Oc3nc4c(c(N)c32)CCCC4)cc(OC)c1OC` (racemic), the concentration giving a half-maximal response (EC50) in “cells” amounted to 4.38 µM. In “in vitro [2]”, the viability at 24 h, 1 µM amounted to 96.5%. For the same molecule, the IC50 at Cholinesterase was more than 10 µM; against Acetylcholinesterase [1], 3.51 µM. Further, in “in vitro [3]”, the viability at 24 h, 300 µM came to 93.5%. Further, the Activity result in the data set with HepG2 was “Dose-dependent effect”; in [5], “Non-toxic”. In “in vitro [6]”, this molecule gave a viability at 24 h, 100 µM of 94.5%. In the data set “in vitro [7]”, the viability at 24 h, 10 µM was 96.4%. The molecule further yielded a viability at 24 h, 3 µM in the data set “in vitro [8]” of 95.6%. For the same molecule, the Papp in [9] was 23.4 ×10⁻⁶ cm/s. In “in vitro [10]”, this molecule returned a viability at 24 h, 30 µM of 96.6%.

Consider `Nc1c2c(nc3c1C(c1ccccc1)c1ccc4ccccc4c1O3)CCCC2` (racemic), for which the IC50 against Cholinesterase was more than 10 µM; at Acetylcholinesterase [1] it was 0.3 µM.

Consider `COc1ccccc1C1c2ccc3ccccc3c2Oc2nc3c(c(N)c21)CCCC3` (racemic), for which the IC50 came to 9.37 µM on Cholinesterase and 4.53 µM against Acetylcholinesterase [1].

These data come from ChEMBL document CHEMBL2203041, “Synthesis, biological assessment, and molecular modeling of racemic 7-aryl-9,10,11,12-tetrahydro-7H-benzo[7,8]chromeno[2,3-b]quinolin-8-amines as potential drugs for the treatment of Alzheimer's disease” (Eur J Med Chem, 2012).
